# Where two headings read alike, the source gives them in different places.
# How the values were obtained:
# [1] = tested on: azole-resistant Candida albicans R357 strain; experiment: microbe, parasite or virus in culture; format: cell-based
# [2] = tested on: C. albicans vaginal isolates; experiment: Susceptibility testing of VVC clinical isolates at pH 7 and 4 (CLSI M27-A3); format: cell-based, Candida albicans; details: for Number of isolates at MIC 0.25 μg/mL / Number of isolates at MIC 0.5 μg/mL / Number of isolates at MIC 1 μg/mL / Number of isolates at MIC 2 μg/mL / Number of isolates at MIC 4 μg/mL / Number of isolates at MIC ≥4 μg/mL / Number of isolates at MIC 0.125 μg/mL: 60 VVC isolates; for MIC / MIC90: Candida albicans; for MIC: read-out: MIC; for MIC90: 60 isolates, read-out: MIC90
# [3] = tested on: C. parapsilosis vaginal isolates; experiment: as above; format: cell-based, Candida parapsilosis; details: 14 isolates, read-out: MIC90
structure (smiles),measurement,setting,value
"OC(Cn1cncn1)(Cn1cncn1)c1ccc(F)cc1F [FLU, fluconazole]",Susceptibility (CLSI),[1]; C. albicans R357,R
same,MIC,[1]; Candida albicans,> 64 mg/L
same,Number of isolates at MIC 0.25 μg/mL,"[2]; 24 h, pH 4",35
same,Number of isolates at MIC 0.5 μg/mL,"[2]; 24 h, pH 4",13
same,Number of isolates at MIC 1 μg/mL,"[2]; 24 h, pH 4",2
same,Number of isolates at MIC 2 μg/mL,"[2]; 24 h, pH 4",2
same,Number of isolates at MIC 4 μg/mL,"[2]; 24 h, pH 4",1
same,Number of isolates at MIC ≥4 μg/mL,"[2]; 24 h, pH 4",7
same,Number of isolates at MIC 0.125 μg/mL,"[2]; 24 h, pH 7",25
same,Number of isolates at MIC 0.25 μg/mL,"[2]; 24 h, pH 7",19
same,Number of isolates at MIC 0.5 μg/mL,"[2]; 24 h, pH 7",7
same,Number of isolates at MIC 1 μg/mL,"[2]; 24 h, pH 7",1
same,Number of isolates at MIC 2 μg/mL,"[2]; 24 h, pH 7",2
same,Number of isolates at MIC ≥4 μg/mL,"[2]; 24 h, pH 7",6
same,Number of isolates at MIC 0.5 μg/mL,"[2]; 48 h, pH 4",27
same,Number of isolates at MIC 1 μg/mL,"[2]; 48 h, pH 4",13
same,Number of isolates at MIC 2 μg/mL,"[2]; 48 h, pH 4",5
same,Number of isolates at MIC 4 μg/mL,"[2]; 48 h, pH 4",1
same,Number of isolates at MIC ≥4 μg/mL,"[2]; 48 h, pH 4",14
same,Number of isolates at MIC 0.125 μg/mL,"[2]; 48 h, pH 7",3
same,Number of isolates at MIC 0.25 μg/mL,"[2]; 48 h, pH 7",37
same,Number of isolates at MIC 0.5 μg/mL,"[2]; 48 h, pH 7",8
same,Number of isolates at MIC 1 μg/mL,"[2]; 48 h, pH 7",2
same,Number of isolates at MIC 2 μg/mL,"[2]; 48 h, pH 7",1
same,Number of isolates at MIC ≥4 μg/mL,"[2]; 48 h, pH 7",9
same,MIC,"[2]; 48 h, pH 4, fluconazole-resistant isolate 1, pH 4, 48 h",> 64 mg/L
same,MIC,"[2]; 48 h, pH 4, fluconazole-resistant isolate 2, pH 4, 48 h",32 mg/L
same,MIC,"[2]; 48 h, pH 4, fluconazole-resistant isolate 3, pH 4, 48 h",> 64 mg/L
same,MIC,"[2]; 48 h, pH 4, fluconazole-resistant isolate 4, pH 4, 48 h",> 64 mg/L
same,MIC,"[2]; 48 h, pH 4, fluconazole-resistant isolate 5, pH 4, 48 h",> 64 mg/L
same,MIC,"[2]; 48 h, pH 4, fluconazole-resistant isolate 6, pH 4, 48 h",> 64 mg/L
same,MIC,"[2]; 48 h, pH 4, fluconazole-resistant isolate 7, pH 4, 48 h",32 mg/L
same,MIC,"[2]; 48 h, pH 4, fluconazole-resistant isolate 8, pH 4, 48 h",> 64 mg/L
same,MIC,"[2]; 48 h, pH 4, fluconazole-resistant isolate 9, pH 4, 48 h",> 64 mg/L
same,MIC,"[2]; 48 h, pH 4, fluconazole-resistant isolate 10, pH 4, 48 h",64 mg/L
same,MIC,"[2]; 48 h, pH 7, fluconazole-resistant isolate 1, pH 7, 48 h",16 mg/L
same,MIC,"[2]; 48 h, pH 7, fluconazole-resistant isolate 2, pH 7, 48 h",16 mg/L
same,MIC,"[2]; 48 h, pH 7, fluconazole-resistant isolate 3, pH 7, 48 h",16 mg/L
same,MIC,"[2]; 48 h, pH 7, fluconazole-resistant isolate 4, pH 7, 48 h",8 mg/L
same,MIC,"[2]; 48 h, pH 7, fluconazole-resistant isolate 5, pH 7, 48 h",> 64 mg/L
same,MIC,"[2]; 48 h, pH 7, fluconazole-resistant isolate 6, pH 7, 48 h",0.25 mg/L
same,MIC,"[2]; 48 h, pH 7, fluconazole-resistant isolate 7, pH 7, 48 h",16 mg/L
same,MIC,"[2]; 48 h, pH 7, fluconazole-resistant isolate 8, pH 7, 48 h",32 mg/L
same,MIC,"[2]; 48 h, pH 7, fluconazole-resistant isolate 9, pH 7, 48 h",> 64 mg/L
same,MIC,"[2]; 48 h, pH 7, fluconazole-resistant isolate 10, pH 7, 48 h",16 mg/L
same,MIC90,"[2]; pH 4, 24 h",8 mg/L
same,MIC90,"[2]; pH 4, 48 h",> 64 mg/L
same,MIC90,"[2]; pH 7, 24 h",8 mg/L
same,MIC90,"[2]; pH 7, 48 h",16 mg/L
same,MIC90,"[3]; pH 4, 24 h",8 mg/L
same,MIC90,"[3]; pH 4, 48 h",> 64 mg/L
same,MIC90,"[3]; pH 7, 48 h",32 mg/L

# Reference: patent US20180256673A1, “METHODS FOR TREATING FUNGAL INFECTIONS” (priority 2015, published 2018)
